Assay results as given in patent publication US6525089B1, “Pharmaceutical composition containing decursin” (Binex Co., Ltd., priority 1998, dated 2003).
Where “and” joins values, the source holds several entries; their conditions need not be identical. Equal values may be shown once. Read-outs that look alike come from different tables or passages of the source.

Tests used:
U-937 cells [1] = assay: NBT reduction test; type: cell-based, human; details: 1 × 10^−7M, incubated 4 days
Procedure: (§1) U-937 cells were plated on a cell culture dish at a concentration of 2×10^5 cells/ml in a medium containing 10^−7M decursin and incubated in a 5% CO2 incubator at 37° C.
In the nitrobluetetrazolium (NBT) reduction test, cell solution (about 1×10^6 cells/ml) was well stirred and pelleted by centrifugation at 2000 rpm for 5 minutes. The pellets were suspended in 0.5 ml of medium, followed by the addition of a mixing solution (0.5 ml) containing 10^−6M formyl-methionine leucine phenylalanine (fMLP) and NBT 1.0 mg/DPBSml (1:9). The mixture was incubated at 37° C. for 30 minutes. The reaction was stopped in ice bath and centrifuged at 2000 rpm for 5 minutes. The supernatant was removed and then 200 μl of DPBS was added. The solution was lightly swayed and checked under a microscope to observe a minimum number of 200 cells. The number of NBT (+) cells was calculated by percentage.
The differentiation was investigated by using the fact that the differentiated leukocyte cells may generate superoxide anion by stimulation. […] The cultured mixture, which was reacted with superoxide, was reduced to form a precipitate. Then NBT was added to the precipitate (Table 7).

SD rats = assay: BUN and creatinine in blood as markers of nephrotoxicity, cisplatin-treated rats; type: in vivo, rat
Procedure: The detailed test methods were summarized hereinafter. BUN (blood urea nitrogen) and creatinine as a marker of nephrotoxicity in the blood, sGPT as a marker of hepatotoxicity, occult blood in the urine, bilirubin, urobilinogen, ketone, protein, nitrite, glucose, pH and specific gravity were determined as follows. […] BUN value was measured using the BUN measurement kit (Youngdong Pharm. Co. Ltd., Korea) in the following procedure. 0.1 ml of urease was added to 20 ml of buffer solution to obtain enzymatic buffer solution. […] The two test tubes were incubated at 37° C. for 15 minutes. Then 2 ml of color-forming solution was added into each test tube and incubated again at 37° C. for 5 minutes. The absorbance was measured at 570 nm to determine the amount of BUN. (2) Measurement of Creatinine Creatinine value was measured using the creatinine measurement kit (Youngdong, Pharm. Co. Ltd., Korea) in the following procedure. 4 ml of tungsten solution was added in 0.5 ml of serum sample to be tested, and stirred vigorously and then left for 10 minutes. […]. Every 3 ml of the supernatant, reference solution of creatinine and distilled water (for blank test) was put to the separate test tubes, followed by the addition of picrate solution (1 ml each). Then 0.5 ml of 1.4N NaOH was added in each tube and stirred to measure the absorbance at 515 nm exactly after the correct lapse of 15 minutes. A total of 10 male SD rats (body weight: 200 g) were used for this experiment. […] The animals were sacrificed and again weighed four days after treatment. […] Blood samples were also taken and left to sit for 30 minutes to isolate the sera, which was used to determine BUN, creatinine and sGPT values as markers of […].

U-937 cells [2] = assay: Esterase activity test: α-naphthyl acetate esterase; type: cell-based, human; details: percentage of cells showing activity
Procedure: To determine α-naphthyl acetate esterase activity in the esterase activity test, the cultured solution of U-937 cells was pelleted by centrifugation at 2000 rpm for 5 minutes, followed by the addition of 100 μl PBS to prepare a cell-concentrated solution. A drop of the cell solution was put on a slide glass and dried for more than 1 hour. Then 40 ml of deionized water was preheated at 37° C. 1 ml of […] solution was mixed with 1 ml of Fast Blue BB base solution and left for 2 minutes. The mixture, being turned to yellow color with thick brown, was added to 40 ml of the preheated deionized water. After the addition of 5 ml of TRIZMAL TM 7.6 buffer solution (Sigma Co. 870-2) and 1 ml of α-naphthyl acetate solution, the resulting solution, which was turned to green color, was poured into a petri dish. The cells on a slide glass were fixed with citrate-acetone-formaldehyde solution (CAF solution) at room temperature. The cells were soaked in the previously prepared solution and incubated at 37° C. for 30 minutes at a dark place. The cells were completely washed with deionized water for more than 2 minutes and counterstained with hematoxylin solution for 2 minutes, washed with tap water and dried in the air. After completely dried, the cells were observed under a microscope to determine the blackish cell numbers.
Thus it was considered that the cells were differentiated into macrophage.like cells by the action of decursin.

[3] = type: in vivo, rat; details: individual rats 1-4, start 200 g, four days after treatment
Procedure: A total of 10 male SD rats (body weight: 200 g) were used for this experiment. […] The animals were sacrificed and again weighed four days after treatment. […] Blood samples were also taken and left to sit for 30 minutes to isolate the sera, which was used to determine BUN, creatinine and sGPT values as markers of […].

U-937 cells [4] = assay: Phagocytosis test; type: cell-based, human; details: 1 × 10^−7M, incubated 4 days
Procedure: as §1
In the phagocytosis test, 10^6 cells were well stirred and pelleted by centrifugation at 2000 rpm for 5 minutes. 1 ml of 0.2% serum free medium solution in polystyrene particle were added to the pellets, swayed and incubated at 37° C. for 4 hours. After being washed with phosphate buffered saline (PBS) three times, cell pellets were harvested and then about 200 μl of DPBS was added. The solution was lightly swayed and checked under a microscope to observe a minimum number of 200 cells. The number of cells containing the particles was calculated by percentage.
The results of phagocytosis test designed to assess the functional change according to differentiation of U-937 cells was shown in the following Table 8.

[5] = post-treated: decursin 17.4 mg/kg i.p. 1, 24, 48 h after cisplatin 5.8 mg/kg i.p.
[6] = pre-treated: decursin 17.4 mg/kg i.p. 1, 24, 48 h prior to cisplatin 5.8 mg/kg i.p.

CC(C)=CC(=O)O[C@H]1Cc2cc3ccc(=O)oc3cc2OC1(C)C [decursin]
NBT reduction test: positive cells (U-937 cells [1]): 43%
NBT reduction test: positive cells (U-937 cells [1]; listed as Decursin): 43.1 ± 4.0%
BUN (SD rats; [5]): 55.2 ± 2.1 mg/dL
Creatinine (SD rats; [5]): 2.08 ± 0.52 mg/dL
reduction of nephrotoxicity (creatinine) compared with the control group receiving cisplatin (SD rats; post-treatment group): about 40%
BUN (SD rats; [6]): 17.5 ± 2.8 mg/dL
Creatinine (SD rats; [6]): 0.74 ± 0.29 mg/dL
α-Naphtylacetate esterase Activity (%) (U-937 cells [2]): 83%
α-Naphtylacetate esterase Activity (%) (U-937 cells [2]; listed as Decursin): 83.3 ± 3.0%
Body weight ([3]; post-treatment group (decursin after cisplatin)): 190 g and 185 g and 180 g (2×)
Body weight ([3]; pre-treatment group (decursin before cisplatin)): 184 g and 190 g and 180 g (2×)
Phagocytosis test: cells showing phagocytosis activity (U-937 cells [4]): 28.6%
Phagocytosis test: cells showing phagocytosis activity (U-937 cells [4]; listed as Decursin): 28.6 ± 1.2%
